Values of other authors as cited in patent US20160095816A2, “ARTICLE AND METHODS FOR ORAL SELF-ADMINISTRATION OF NICOTINE” (priority 2012, published 2016).

Columns and labels:
[1] = cigarette smoking, inhaled; "may be as high as"
[2] = metabolized in the liver

CN1CCCC1c1cccnc1 (centres unmarked) [Nicotine, 3-(1-Methyl-2-pyrrolidinyl) pyridine]
peak of nicotine delivered into the bloodstream through smoking [1]: 30-40 nanograms per milliliter of blood | half life in the bloodstream [2]: 1 to 2 h
